Structures can show the parent of a compound that is named as a salt.
These molecules were tested on PMS1 (assay: Mini-gene reporter assay-PMS1). Conditions: Homo sapiens, HEK293, PMS1 mini-gene firefly luciferase reporter transiently transfected into HEK293 cells; read-out: PMS1 IC50.
Assay type: cell-based
Excerpt: Biological Activity of the Compounds of the Present Disclosure Mini-gene reporter assay-PMS1
Mini-gene reporter constructs for each target site can be constructed by first PCR amplifying the region-of-interest including the sequence of the alternatively skipped, sequences of the immediate upstream and downstream introns, and sequences of the immediate upstream and downstream exons. Then the 3′end of the amplified sequence can be ligated to a firefly luciferase reporter gene and cloned into the pcDNA3.1 vector backbone. The final reporter construct can be transiently transfected into HEK293 cells using Lipofectamine 3000 transfection reagents. Compounds that can induce the inclusion of the skipped exon in the reporter construct would increase the reporter firefly luciferase activity.
Test compounds may be diluted in duplicates and dispensed into an assay plate. Transient mini-gene reporter cell line stock is resuspended and dispensed into the assay plate. Assay plates are then centrifuged and incubated. A luciferase reagent (e.g. ONE-Glo firefly luciferase reagent from Promega®) may be added to the assay plate and the luminescence (RLU) signals recorded. PMS1 EC50 values may be determined by curve fitting in Levenberg-Marquardt algorithm.

Structure (SMILES)	IC50 [nM]
CCOc1nc(N2CCC3(CCNC3)CC2)ncc1C(=O)Nc1cn2cc(C)nc2c(C)n1 [Compound 89]	> 3000
CCOc1nc(N2CC3(CCCNC3)C2)ncc1C(=O)Nc1cn2cc(C)nc2c(C)n1 [Compound 87]	1000 to 3000
CCOc1nc(N2CC[C@H]3CCN[C@H]3C2)ncc1C(=O)Nc1cc(F)c2nc(C)cn2c1 (racemic) [Compound 198]	1000 to 3000
CCOc1nc(N2CCNC(CC)C2)ncc1C(=O)Nc1cc(F)c2nc(C)cn2c1 (stereo not drawn) [Compound 11, 4-ethoxy-2-(3-ethylpiperazin-1-yl)-N-{8-fluoro-2-methylimidazo[1,2-a]pyridin-6-yl}pyrimidine-5-carboxamide]	< 500
CCOc1nc(N2CCC(NC)C2)ncc1C(=O)Nc1ccc2nc(C)cn2n1 (stereo not drawn) [Compound 319]	> 3000
COc1nc(NC2CCNCC2)ncc1C(=O)Nc1cn2cc(C)nc2cn1 [Compound 271, 4-methoxy-N-(2-methylimidazo[1,2-a]pyrazin-6-yl)-2-(piperidin-4-ylamino) pyrimidine-5-carboxamide 2,2,2-trifluoroacetate]	> 3000
CCOc1nc(N(C)C2CCNCC2)ncc1C(=O)Nc1cc(F)c2nc(C)cn2c1 [Compound 241]	< 500
CCOc1nc(N2CCC(C3(O)CNC3)CC2)ncc1C(=O)Nc1cc(F)c2nc(C)cn2c1 [Compound 129]	> 3000
CCOc1nc(N2C[C@@H]3CNC[C@]3(C)C2)ncc1C(=O)Nc1cc(F)c2nc(C)cn2c1 (racemic) [Compound 179]	< 500
CCOc1nc(N2CCNC(C)CC2)ncc1C(=O)Nc1cn2cc(C)nc2c(C)n1 (stereo not drawn) [Compound 71]	500 to 1000
CCOc1nc(N2C[C@@H]3C[C@H]2CN3)ncc1C(=O)Nc1cn2cc(C)nc2c(C)n1 [Compound 55]	> 3000
CCNC1COC2(C1)CN(c1ncc(C(=O)Nc3cn4cc(C)nc4c(C)n3)c(OCC)n1)C2 (stereo not drawn) [Compound 45]	> 3000
CCOc1nc(N2CCC(CNC(C)C)CC2)ncc1C(=O)Nc1cn2cc(C)nc2c(C)n1 [Compound 58]	500 to 1000
CCOc1nc(N2CCC(NCC3CC3)CC2)ncc1C(=O)Nc1cc(F)c2nc(C)cn2c1 [Compound 164]	< 500
CCOc1nc(N2CCOC3(CCNCC3)C2)ncc1C(=O)Nc1cc(F)c2nc(C)cn2c1 [Compound 223]	> 3000
CCOc1nc(N2CCN(C3CNC3)CC2)ncc1C(=O)Nc1cc(F)c2nc(C)cn2c1 [Compound 221]	1000 to 3000
CCOc1nc(N2CCC3(CNC3)C2)ncc1C(=O)Nc1cn2cc(C)nc2c(C)n1 [Compound 78]	< 500
CCOc1nc(N2CC3CNCC3C2)ncc1C(=O)Nc1cc(F)c2nc(C)oc2c1 (stereo not drawn) [Compound 14, 4-ethoxy-N-(4-fluoro-2-methyl-1,3-benzoxazol-6-yl)-2-{octahydropyrrolo[3,4-c]pyrrol-2-yl}pyrimidine-5-carboxamide]	< 500
CCOc1nc(N2CC(NC)C2)ncc1C(=O)Nc1ccc2nn(C)cc2c1 [Compound 255, 4-ethoxy-N-(2-methyl-2H-indazol-5-yl)-2-(3-(methylamino)azetidin-1-yl)pyrimidine-5-carboxamide]	> 3000
CCOc1nc(N2CCC(N3CCNCC3)CC2)ncc1C(=O)Nc1cc(F)c2nc(C)cn2c1 [Compound 222]	1000 to 3000
CCOc1nc(N2CCC3(CCNC3)C2)ncc1C(=O)Nc1cc(F)c2nc(C)cn2c1 (stereo not drawn) [Compound 234]	< 500
CCOc1nc(N2CC3(CCNCC3)CC2C)ncc1C(=O)Nc1cc(F)c2nc(C)cn2c1 (stereo not drawn) [Compound 152]	500 to 1000
CCOc1nc(N(C)C2CCCNCC2)ncc1C(=O)Nc1cc(F)c2nc(C)cn2c1 (stereo not drawn) [Compound 173]	< 500
CCOc1nc(N2C[C@@H]3CCCN[C@@H]3C2)ncc1C(=O)Nc1cc(F)c2nc(C)cn2c1 [Compound 197]	< 500
CCOc1nc(N2CC3(CNCCO3)C2)ncc1C(=O)Nc1cn2cc(C)nc2c(C)n1 [Compound 104]	> 3000

Structure (SMILES)	IC50 [nM]
CCOc1nc(N2CCCC(C3CNC3)C2)ncc1C(=O)Nc1cc(F)c2nc(C)cn2c1 (stereo not drawn) [Compound 159]	> 3000
CCOc1nc(N2CCC(CNC)CC2)ncc1C(=O)Nc1cn2cc(C)nc2c(C)n1 [Compound 76]	< 500
CCOc1nc(N(C)C2CC3CCC(C2)N3)ncc1C(=O)Nc1cn2cc(C)nc2c(C)n1 (stereo not drawn) [Compound 37]	< 500
CCOc1nc(N2CCNC3CCCCC32)ncc1C(=O)Nc1cn2cc(C)nc2c(C)n1 (stereo not drawn) [Compound 23]	> 3000
CCOc1nc(N2CCNCC2)ncc1C(=O)Nc1cc(F)c2nc(C)oc2c1 [Compound 12, 4-ethoxy-N-(4-fluoro-2-methyl-1,3-benzoxazol-6-yl)-2-(piperazin-1-yl)pyrimidine-5-carboxamide]	1000 to 3000
CCOc1nc(N2CCC3(CCCCN3)C2)ncc1C(=O)Nc1cn2cc(C)nc2c(C)n1 (stereo not drawn) [Compound 96]	1000 to 3000
CCOc1nc(N2CCNCC2C)ncc1C(=O)Nc1cc(F)c2nc(C)cn2c1 (stereo not drawn) [Compound 240]	< 500
CCOc1nc(N2CC[C@@H]3CNC[C@@H]32)ncc1C(=O)Nc1cn2cc(C)nc2c(C)n1 (racemic) [Compound 60]	500 to 1000
CCOc1nc(N2CCCC(NC)C2)ncc1C(=O)Nc1cc(F)c2nc(C)cn2c1 (stereo not drawn) [Compound 232]	500 to 1000
CCOc1nc(N2CCC(NC)C2)ncc1C(=O)Nc1cc(OC)c2nn(C)cc2c1 (stereo not drawn) [Compound 278, 4-ethoxy-N-(7-methoxy-2-methyl-2H-indazol-5-yl)-2-(3-(methylamino)pyrrolidin-1-yl)pyrimidine-5-carboxamide formate]	< 500
CCOc1nc(N2CC3CNC(C3)C2)ncc1C(=O)Nc1cn2cc(C)nc2c(C)n1 (stereo not drawn) [Compound 85]	> 3000
CCOc1nc(N2CC[C@@H](NC)C2)ncc1C(=O)Nc1cc(F)c2nc(C)cn2c1 [Compound 262, (R)-4-ethoxy-N-(8-fluoro-2-methylimidazo[1,2-a]pyridin-6-yl)-2-(3-(methylamino)pyrrolidin-1-yl)pyrimidine-5-carboxamide formate]	< 500
CCOc1nc(N2CCNCC2C(F)F)ncc1C(=O)Nc1cc(F)c2nc(C)cn2c1 (stereo not drawn) [Compound 112]	1000 to 3000
CCOc1nc(N2CCC(NC)C2)ncc1C(=O)Nc1cc(F)c2nc(C)cn2c1 (stereo not drawn) [Compound 229]	< 500
CCOc1nc(N2CCNC(C(F)F)C2)ncc1C(=O)Nc1cc(F)c2nc(C)cn2c1 (stereo not drawn) [Compound 115]	> 3000
CCOc1nc(N2CC[C@H](N(C)C)C2)ncc1C(=O)Nc1cc(F)c2nc(C)cn2c1 [Compound 294, (S)-2-(3-(dimethylamino)pyrrolidin-1-yl)-4-ethoxy-N-(8-fluoro-2-methylimidazo[1,2-a]pyridin-6-yl)pyrimidine-5-carboxamide formate]	> 3000
CCOc1nc(N2CC3CNCC3C2)ncc1C(=O)Nc1cn2cc(C)nc2c(C)n1 (stereo not drawn) [Compound 20, N-{2,8-dimethylimidazo[1,2-a]pyrazin-6-yl}-4-ethoxy-2-{octahydropyrrolo[3,4-c]pyrrol-2-yl}pyrimidine-5-carboxamide]	< 500
CCOc1nc(N2CCNCC3(CC3)C2)ncc1C(=O)Nc1cn2cc(C)nc2c(C)n1 [Compound 92]	1000 to 3000
CCOc1nc(N2CCN(CC)CC2)ncc1C(=O)Nc1cc(F)c2nn(C)cc2c1 [Compound 252, 4-ethoxy-2-(4-ethylpiperazin-1-yl)-N-(7-fluoro-2-methyl-2H-indazol-5-yl)pyrimidine-5-carboxamide hydrochloride]	> 3000
CCOc1nc(N2CCNCC(C)(C)C2)ncc1C(=O)Nc1cc(F)c2nc(C)cn2c1 [Compound 118]	1000 to 3000
COc1nc(NC2CCNCC2)ncc1C(=O)Nc1cn2cc(C)nc2c(C)n1 [Compound 266, N-(2,8-dimethylimidazo[1,2-a]pyrazin-6-yl)-4-methoxy-2-(piperidin-4-ylamino) pyrimidine-5-carboxamide formic acid]	1000 to 3000
CCOc1nc(N2CCOC3(CCCNC3)C2)ncc1C(=O)Nc1cc(F)c2nc(C)cn2c1 (stereo not drawn) [Compound 145]	> 3000
CCOc1nc(N2CC(NC)C2)ncc1C(=O)Nc1cc(F)c2nc(C)cn2c1 [Compound 242]	< 500
CCOc1nc(N2CC[C@H](NC)C2)ncc1C(=O)Nc1ccc2nn(C)cc2c1 [Compound 285, (S)-4-ethoxy-N-(2-methyl-2H-indazol-5-yl)-2-(3-(methylamino)pyrrolidin-1-yl)pyrimidine-5-carboxamide 2,2,2-trifluoroacetate]	1000 to 3000

Same assay, conditions: Homo sapiens, HEK293, read-out: PMS1 IC50 (nM)

Structure (SMILES)	IC50 [nM]
CCOc1nc(N(CC)C2CCNCC2)ncc1C(=O)Nc1cc(OC)c2nc(C)cn2c1 [Compound 260, 4-ethoxy-2-(ethyl(piperidin-4-yl)amino)-N-(8-methoxy-2-methylimidazo[1,2-a]pyridin-6-yl)pyrimidine-5-carboxamide formate]	< 500

Same assay, conditions: Homo sapiens; at 5 μM; PMS1 mini-gene firefly luciferase reporter in HEK293 cells; read-out: PMS1% Effect at 5 μM

Structure (SMILES)	activation at 5 µM [%]
CCOc1nc(N2CCNCC(F)(F)C2)ncc1C(=O)Nc1cc(F)c2nc(C)cn2c1 [Compound 140]	< 50
CCOc1nc(C2=CCNC2)ncc1C(=O)Nc1cc(F)c2nc(C)cn2c1 [Compound 315, 2-(2,5-dihydro-1H-pyrrol-3-yl)-4-ethoxy-N-8-fluoro-2-methylimidazo[1,2-a]-pyridin-6-ylpyrimidine-5-carboxamide]	> 75
CCOc1nc(N2CC[C@@H]3NCC(=O)N[C@@H]3C2)ncc1C(=O)Nc1cc(F)c2nc(C)cn2c1 (racemic) [Compound 170]	< 50
CCOc1nc(N2CC[C@@H](NC)C2)ncc1C(=O)Nc1cc(F)c2nc(C)cn2c1 (single isomer, unassigned) [Compound 311, hydrochloride]	> 75
